Blank lines part the entries; values can stand above or below the compound they belong to.
Assays:
CXCR1 = target: T1, CXCR1 (Homo sapiens, UniProt P25024); details: background, literature; cited from earlier work
T1 sequence (P25024 1-350): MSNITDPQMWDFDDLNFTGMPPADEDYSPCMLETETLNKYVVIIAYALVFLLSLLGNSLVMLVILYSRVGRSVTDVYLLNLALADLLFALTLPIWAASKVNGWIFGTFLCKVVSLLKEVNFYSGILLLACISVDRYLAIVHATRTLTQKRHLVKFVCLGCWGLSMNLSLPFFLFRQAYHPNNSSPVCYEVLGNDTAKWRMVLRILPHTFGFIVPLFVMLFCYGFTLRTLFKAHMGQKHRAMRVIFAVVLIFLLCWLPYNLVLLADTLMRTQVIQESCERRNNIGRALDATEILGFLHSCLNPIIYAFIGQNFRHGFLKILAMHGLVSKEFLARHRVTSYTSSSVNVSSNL

CXCR2 = target: T2, CXCR2 (Homo sapiens, UniProt P25025); details: background, literature; cited from earlier work
T2 sequence (P25025 1-360): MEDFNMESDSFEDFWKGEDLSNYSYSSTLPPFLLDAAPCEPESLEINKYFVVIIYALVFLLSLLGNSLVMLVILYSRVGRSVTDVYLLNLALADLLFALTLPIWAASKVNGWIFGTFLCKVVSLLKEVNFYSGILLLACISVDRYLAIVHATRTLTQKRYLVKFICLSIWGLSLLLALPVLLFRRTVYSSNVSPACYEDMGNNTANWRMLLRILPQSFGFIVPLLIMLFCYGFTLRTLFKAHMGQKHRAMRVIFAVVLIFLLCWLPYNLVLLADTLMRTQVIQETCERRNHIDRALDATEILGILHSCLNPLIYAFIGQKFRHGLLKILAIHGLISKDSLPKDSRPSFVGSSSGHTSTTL

[1] = background, literature; cited from earlier work
[2] = Stability test of anhydrous form in climatic chamber (50% R.H., about 25° C., 24 hours); format: physicochemical
Method: (§1) • Instrument: Mettler DL38, V30 or equivalent • Electrode: Double platinum pin electrode DM 143-SC for Karl Fischer titration. • Titrant: Karl Fischer reagent 5 mg H2O/ml • Solvent: 30 ml of methanol previously neutralized with Karl Fischer reagent. • Procedure: about 0.2 g of the product, accurately weighed, were dissolved in the solvent and titrated with the Karl Fischer reagent.

[3] = Stability test under conditions A (30° C. and 65% R.H.); format: physicochemical
Method: (§2) The monohydrate DF2755A was then subjected to stability tests under the following conditions: • A) at 30° C. and 65% R.H. (up to 18 months) and • B) at 40° C. and 75% R.H. (accelerated stability up to 12 months).
(§3) The samples were analysed for appearance, water content, HPLC purity, HPLC assay, HPLC enantiomeric purity and DSC thermal behaviour.

[4] = Water content by Karl-Fischer of the prepared product; format: physicochemical; details: product as prepared by controlled hydration
Method: as §1
[formula] • where • V=ml of the Karl Fischer reagent used in the titration • e=equivalent of the Karl Fischer reagent (mg H2O/ml) • w=weight of the sample in g
(§4) The analysis was carried out on three samples and the results averaged. The limit had to be not more than 10.0%.

[5] = Particle size distribution (Malvern Mastersizer 3000, Aero S); format: physicochemical; details: powder of Example 3A
Method: Particle Size Distribution was measured by Malvern Mastersizer 3000 using Aero S accessory.

[6] = Tapped and bulk density (Ph. Eur. 2.9.34), compressibility index, Hausner ratio; format: physicochemical
Method: Tapped and Bulk Density were determined with a density tester ERWEKA SMV 102 (Heusenstamm, Germany) according to European Pharmacopeia (Ph. Eur. 2.9.34).
Compressibility Index was calculated according to the formula:
C.I.=100×(tapped density−bulk density)/tapped density.
Hausner ratio was calculated according to the formula:
H.r.=tapped density/bulk density

[7] = Stability test under accelerated conditions B (40° C. and 75% R.H.); format: physicochemical; design: key to Appearance: Compl.: Compl: compliant
Method: • Apparatus: Agilent HP 1100, HP 1200 or equivalent HPLC system with UV detector • Detector: wavelength: 220 nm • Column: BDS Hypersyl C18, 250×4.6 mm, 5 μm (Thermo) or equivalent • Column temperature: 35° C. • Mobile phase: (A) Buffer solution KH2PO4 0.025M (pH 3.0). Procedure: dissolve 3.4 g of potassium dihydrogen phosphate in water and dilute to 1000 ml with water; adjust to pH 3.0 with dilute phosphoric acid or with potassium hydroxide solutions. (B) acetonitrile. • Flow: 1.3 ml/minute • Injection Volume: 10 μl • Time between injections: 26 min • Diluent: H2O/CH3CN (40/60) • Relative retention time: DF 2755 Rt 11.8 min • Gradient: Table 2
• Chromatographic conditions • Apparatus: Agilent HP 1100, HP 1200 or equivalent HPLC system with UV detector • Detector: wavelength: 294 nm • Column: Chiralpak AS-RH, 150×4.6 mm […] (Daicel) or equivalent • Column temperature: 35° C. • Mobile phase: (A) Buffer solution KH2PO4 0.025M (pH 3.0) Procedure: dissolve 3.4 g of potassium dihydrogen phosphate in water and dilute to 1000 ml with water; adjust to pH 3.0 with dilute phosphoric acid or with potassium hydroxide solutions; (B) acetonitrile • Flow: 0.7 ml/minute • Injection volume: 10 μl • Time between injections: 45 min • Diluent: H2O/CH3CN (40/60) • Eluent: 70% Mobile phase A, 30% Mobile phase B
as §1, §4, §2, §3

[8] = 50% R.H., about 25° C., 24 hours

Appearance after exposure [2, 8]: sticky hydrated solid
Water content measured by Karl Fischer analysis after exposure [2, 8]: 17%
Amount of by-product of hydroxylation at position 4 of the thiazole ring (1H-NMR) ([2]; after exposure to humidity, about 25° C., 24 hours): about 50 % mol/mol
Hygroscopicity ([2]; anhydrous form, absorbs water from the environment): highly hygroscopic
Stability conclusion ([2]; under the test conditions (50% R.H., about 25° C., 24 hours)): both physically and chemically unstable
SMILES: C[C@H](C(=O)[O-])c1ccc(Nc2nc(C(F)(F)F)cs2)cc1.[Na+] [anhydrous DF2755A, sodium (2S)-2-(4-{[4-(trifluoromethyl)-1,3-thiazol-2-yl]amino}phenyl) propanoate]
Inhibitory activity of CXCR1 receptor (CXCR1): selective dual potent inhibitory activity
Inhibitory activity of CXCR2 receptor (CXCR2): selective dual potent inhibitory activity
Oral pharmacokinetic profile [1]: favorable

Time completely stable ([3]; 30° C. and 65% R.H.): ≥ 18 months
Water content by Karl Fisher method [4]: 5.27 % by weight
Particle size distribution D(0.1) [5]: 2.09 μm
Particle size distribution D(0.5) [5]: 7.86 μm
Particle size distribution D(0.9) [5]: 25.42 μm
Compressibility index ([6]; 100×(tapped density−bulk density)/tapped density): 30.7
Bulk density ([6]; powder of Example 3A): 0.178 g/mL
Tapped density ([6]; powder of Example 3A): 0.256 g/mL
Hausner ratio ([6]; tapped density/bulk density): 1.44
Assay % (HPLC) ([7]; 40° C./75% R.H., 0 months): 97.40%
DFL23803 (HPLC) by-product content ([7]; 40° C./75% R.H., 0 months): ≤0.11%
Enantiomeric purity % (HPLC): DF2703Y content ([7]; 40° C./75% R.H., 0 months): 1.0%
Total impurities content % (HPLC) ([7]; 40° C./75% R.H., 0 months): 0.03%
Water content (K.F %) ([7]; 40° C./75% R.H., 0 months): 5.27%
Appearance ([7]; 40° C./75% R.H., 0 months, limit white to ivory powder): Compl.
Appearance ([7]; 40° C./75% R.H., 1 month): Compl.
Assay % (HPLC) ([7]; 40° C./75% R.H., 1 month): 96.93%
DFL23803 (HPLC) by-product content ([7]; 40° C./75% R.H., 1 month): ≤0.11%
Enantiomeric purity % (HPLC): DF2703Y content ([7]; 40° C./75% R.H., 1 month): 1.0%
Total impurities content % (HPLC) ([7]; 40° C./75% R.H., 1 month): 0.03%
Water content (K.F %) ([7]; 40° C./75% R.H., 1 month): 5.27%
Appearance ([7]; 40° C./75% R.H., 3 months): Compl.
Assay % (HPLC) ([7]; 40° C./75% R.H., 3 months): 97.67%
DFL23803 (HPLC) by-product content ([7]; 40° C./75% R.H., 3 months): ≤0.11%
Enantiomeric purity % (HPLC): DF2703Y content ([7]; 40° C./75% R.H., 3 months): 1.0%
Total impurities content % (HPLC) ([7]; 40° C./75% R.H., 3 months): 0.03%
Water content (K.F %) ([7]; 40° C./75% R.H., 3 months): 5.12%
Appearance ([7]; 40° C./75% R.H., 6 months): Compl.
Assay % (HPLC) ([7]; 40° C./75% R.H., 6 months): 96.94%
DFL23803 (HPLC) by-product content ([7]; 40° C./75% R.H., 6 months): ≤0.11%
Enantiomeric purity % (HPLC): DF2703Y content ([7]; 40° C./75% R.H., 6 months): 1.0%
Total impurities content % (HPLC) ([7]; 40° C./75% R.H., 6 months): 0.03%
Water content (K.F %) ([7]; 40° C./75% R.H., 6 months): 4.95%
Appearance ([7]; 40° C./75% R.H., 12 months): Compl.
Assay % (HPLC) ([7]; 40° C./75% R.H., 12 months): 100.3%
DFL23803 (HPLC) by-product content ([7]; 40° C./75% R.H., 12 months): ≤0.11%
Enantiomeric purity % (HPLC): DF2703Y content ([7]; 40° C./75% R.H., 12 months): 1.0%
Total impurities content % (HPLC) ([7]; 40° C./75% R.H., 12 months): 0.02%
Water content (K.F %) ([7]; 40° C./75% R.H., 12 months): 5.17%
Time completely stable ([7]; accelerated conditions B, 40° C. and 75% R.H.): ≥ 12 months
Hygroscopicity ([7]; unchanged water content for at least 12 months under accelerated stability conditions): not hygroscopic
SMILES: C[C@H](C(=O)[O-])c1ccc(Nc2nc(C(F)(F)F)cs2)cc1.O.[Na+] [monohydrate DF2755A, crystalline monohydrate sodium (2S)-2-(4-{[4-(trifluoromethyl)-1,3-thiazol-2-yl]amino}phenyl) propanoate]
DSC profile over time ([3]; 30° C./65% R.H.): substantially the same DSC profile over time
DSC profile over time ([7]; conditions B, 40° C./75% R.H.): substantially the same DSC profile over time

— US20260076949A1, “STABLE MONOHYDRATE OF DF2755A AND PROCESS FOR ITS PREPARATION” (Dompe' Farmaceutici SPA, priority 2023, published 2026)
